Experimental data taken from patent US20070081951A1, “Prevention of dental plaque and dental calculus in animals” (priority 2005, published 2007).

How the values were obtained:
[1] = test system: Actinomyces viscosus (AV); assay: Zones of inhibition of growth on TSA agar plates, Actinomyces viscosus (AV); format: cell-based; conditions: for Zones of Inhibition of Growth, AV: 20 ul specimen on TSA agar lawn, 37° C., 5% CO2, read at 24 and 48 h, CPC 0.05%, CHX 0.1%, acids 1% (wt. %)
Method: (§1) This study was conducted to determine whether anti-calculus agents inhibit the antimicrobial activity of cetyl pyridium chloride […] and chlorhexidine (CHX).
(§2) Experimental Design: TSA agar plates were individually swabbed with fresh 24 h broth cultures of Streptococcus mutans (TH16), Streptococcus parasanguis (FW213) and Actinomyces viscosus (AV) to provide a confluent lawn of bacterial growth. Five minutes after swabbing the plates (to allow the inoculum to absorb into the agar), 20 ul of each test specimen (see below) was placed onto designated places on the plates and allowed to absorb into the agar. The plates were incubated agar-side up at 37° C. in 5% CO2 for 48 h. Plates were examined at 24 and 48 h for zones of inhibition of growth for each bacterial species. The diameter of each zone was measured in mm. The zones of inhibition of each mixture (anti-calculus and antimicrobial agents) were compared to the zones of each agent separately. If the zones of the mixtures were the same size (or larger) than the inhibition zones from the antimicrobial agent alone then there was no inhibition of antimicrobial activity by the anti-calculus agent.
(§3) Test Specimens: There were 12 different samples/test specimens used in this experiment. Test groups included (concentrations are wt. %): cetyl pyridium chloride ([…]; commercially available from ICN Biomedicals, Inc., Aurora, Ohio) at a concentration of 0.05%; CPC at 0.05%+1.0% malic acid; CPC at 0.05%+1% fumaric acid; CPC at 0.05%+1% citric acid; chlorhexidine (CHX; commercially available ICN Biomedicals, Inc., Aurora, Ohio) at 0.1% alone; CHX at 0.1%+1% malic acid; CHX at 0.1%+1% fumaric acid; CHX at 0.1%+1% citric acid; 1% malic acid; 1% fumaric acid; 1% citric acid.
(§4) Results: See Table 1 (below). This study was designed to determine whether or not the polycarboxylic acids (anti-calculus agents) altered the activity of the anti-microbial agents. Decreases in the width of the zone of inhibition when the polycarboxylic acid is combined with the antimicrobial agent, as compared to the width of the zone of inhibition for the antimicrobial agent alone, is an indication that the polycarboxylic acid reduced the activity of the anti-microbial agent. Differences in the width of the zone of inhibition of ±3 mm are not considered to be significant.

[2] = test system: Streptococcus parasanguis (FW213); assay: Zones of inhibition of growth on TSA agar plates, Streptococcus parasanguis (FW213); format: cell-based; conditions: for Zones of Inhibition of Growth, FW213: 20 ul specimen on TSA agar lawn, 37° C., 5% CO2, read at 24 and 48 h, CPC 0.05%, CHX 0.1%, acids 1% (wt. %)
Method: as §1, §2, §3, §4

[3] = test system: Streptococcus mutans (TH16); assay: Zones of inhibition of growth on TSA agar plates, Streptococcus mutans (TH16); format: cell-based; conditions: for Zones of Inhibition of Growth, TH16: 20 ul specimen on TSA agar lawn, 37° C., 5% CO2, read at 24 and 48 h, CPC 0.05%, CHX 0.1%, acids 1% (wt. %)
Method: as §1, §2, §3, §4

dental plaque in cats = assay: Example 3: antimicrobial rinses in cats, 4-week dental plaque formation; format: in vivo; conditions: 4-week test periods, clinical plaque grading
Method: The presence of dental plaque was assessed clinically by disclosing the plaque with an aqueous solution containing 1.5% D&C Red #28, removing the excess disclosant by spraying with tap water, and then determining the amount of plaque present on the occlusal and gingival halves of the buccal surface of each tooth using the following numerical scale: 0=no observable plaque; 1=scattered plaque covering <24% of the tooth surface; 2=plaque covering between 25 and 49% of the tooth surface; 3=plaque covering between 50 and 74% of the tooth surface; and 4=plaque covering 75% or more of the tooth surface. The plaque intensity or thickness was assessed for each area using the following subjective numerical scale: 1=light or thin layer of plaque; 2=moderate thickness of about 1 mm; and 3=heavy or thick layer of plaque in excess of 1 mm in thickness. The results of the assessments were summarized for each animal by multiplying the plaque coverage score by the intensity factor for each occlusal and gingival segment of each tooth, summing the scores for the occlusal and gingival segments to obtain an individual tooth score, and summing the individual tooth scores and dividing by the number of teeth graded.
The treatments were applied as rinses with 4-week test periods using the same procedures as described for Example 2. The amount of plaque present at the conclusion of the test period was graded clinically using the numerical scale described previously.

[4] = zone of mixture vs antimicrobial agent alone, differences of ±3 mm not significant

O=C(O)CC(O)(CC(=O)O)C(=O)O [C (citric acid), citric acid]
Zones of Inhibition of Growth, AV [1]: 0 mm | Zones of Inhibition of Growth, FW213 [2]: 0 mm | Zones of Inhibition of Growth, TH16 [3]: Weak* (Weak = very slight activity; <1 mm)

[H]/N=C(\N/C(=N/[H])NCCCCCCNC(=N)NC(=N)Nc1ccc(Cl)cc1)Nc1ccc(Cl)cc1 [CHX alone, chlorhexidine gluconate]
Zones of Inhibition of Growth, AV [1]: 20 mm | Change of antimicrobial activity on combining with the polycarboxylic acids, A. viscosus [1, 4]: decreased by the presence of fumaric acid | Zones of Inhibition of Growth, FW213 [2]: 13 mm | Change of antimicrobial activity on combining with the polycarboxylic acids, S. parasanguis [2, 4]: not altered | Zones of Inhibition of Growth, TH16 [3]: 6 mm | Change of antimicrobial activity on combining with the polycarboxylic acids, S. mutans [3, 4]: not altered

O=C(O)/C=C/C(=O)O [F (fumaric acid), fumaric acid]
Zones of Inhibition of Growth, AV [1]: 0 mm | Zones of Inhibition of Growth, FW213 [2]: 0 mm | Zones of Inhibition of Growth, TH16 [3]: Weak* (Weak = very slight activity; <1 mm)

O=C(O)CC(O)C(=O)O (stereo not drawn) [M (malic acid), malic acid]
Zones of Inhibition of Growth, AV [1]: 0 mm | Zones of Inhibition of Growth, FW213 [2]: 0 mm | Zones of Inhibition of Growth, TH16 [3]: Weak* (Weak = very slight activity; <1 mm)

Oc1cc(Cl)ccc1Oc1ccc(Cl)cc1Cl [Triclosan]
Reduction in the formation of dental plaque (dental plaque in cats): 14.8%

CCCCCCCC(=O)O [caprylic acid]
Reduction in the formation of dental plaque (dental plaque in cats): 10.2%

[F][Sn][F] [stannous fluoride]
Reduction in the formation of dental plaque (dental plaque in cats): no reduction
